Experimental data from patent US20260176254A1, “INHIBITORS OF PROSTATE SPECIFIC MEMBRANE ANTIGEN AND USE THEREOF” (SHANGHAI SINOTAU BIOTECH. CO., LTD, priority 2023, published 2026).
pIC50: −log10 of the molar value.

Assays:
[1] = biological target: T1, recombinant human PSMA (rhPSMA) (Homo sapiens, UniProt Q04609); experiment: Naaladase assay (fluorescence-based Naaladase activity inhibition); type: biochemical; conditions: rhPSMA 0.4 μg/mL, substrate N-Acetyl-Asp-Glu 40 μM, 37° C. one hour
T1 construct: purchased Sino Biological
T1 sequence (Q04609 whole entry): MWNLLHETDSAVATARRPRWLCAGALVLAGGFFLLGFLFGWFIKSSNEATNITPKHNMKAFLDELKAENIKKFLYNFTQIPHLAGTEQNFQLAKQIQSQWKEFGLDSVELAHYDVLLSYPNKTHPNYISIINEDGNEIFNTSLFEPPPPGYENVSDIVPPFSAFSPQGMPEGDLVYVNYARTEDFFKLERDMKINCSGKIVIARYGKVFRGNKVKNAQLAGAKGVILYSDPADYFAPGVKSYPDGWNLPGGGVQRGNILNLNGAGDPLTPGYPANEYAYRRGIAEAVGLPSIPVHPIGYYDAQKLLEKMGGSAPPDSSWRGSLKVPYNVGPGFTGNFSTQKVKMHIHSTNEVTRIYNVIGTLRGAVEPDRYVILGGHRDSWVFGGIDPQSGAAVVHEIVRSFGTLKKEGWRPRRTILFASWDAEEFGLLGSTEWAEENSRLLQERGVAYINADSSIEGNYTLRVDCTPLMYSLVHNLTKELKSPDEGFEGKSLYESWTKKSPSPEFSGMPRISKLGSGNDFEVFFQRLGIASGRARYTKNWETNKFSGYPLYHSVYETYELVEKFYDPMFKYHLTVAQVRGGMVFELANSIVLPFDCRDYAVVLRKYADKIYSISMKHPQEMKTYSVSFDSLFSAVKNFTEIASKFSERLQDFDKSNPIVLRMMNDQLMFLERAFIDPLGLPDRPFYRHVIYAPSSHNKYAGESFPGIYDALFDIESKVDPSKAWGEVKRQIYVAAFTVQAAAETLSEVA
Method in brief: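 rhPSMA (0.4 μg/mL) mixed 1:1 with 40 μM N-acetyl-Asp-Glu plus compound (0.15–1000 nM) in 50 mM HEPES, 100 mM NaCl, pH 7.5, 1 h at 37 °C, stopped at 95 °C. Glutamate released detected with ortho-phthaldialdehyde fluorescence (ex 330/em 450 nm); one-site total binding fit.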

LNCaP cells = experiment: Cell uptake assay of 177Lu-labeled compound; type: cell-based; conditions: for Membrane (%): cell membrane fraction; for Intracellular (%): intracellular fraction
Description: LNCaP (ATCC) cells were cultured in RPMI 1640 medium (Gibco) containing 10% fetal bovine serum (FBS) (Gibco), in 5% carbon dioxide (CO2), at 37.0° C. in a humidified incubator. 2×10^5 LNCaP cells/well were seeded in a 24-well plate the day before experiment. 7.4 KBq (200 nCi) of ^177Lu-labeled compound was added into each well, and then incubated in 37° C., 5% CO2 incubator for varying durations. At each time point, the supernatant, cell membrane and intracellular fractions were collected. The cell membrane fraction was recovered by incubating cells with buffer containing 50 mM glycine and 100 mM NaCl, pH 2.7 for 10 minutes at 37° C., while the intracellular fraction was recovered from cells treated with 1M NaOH. Activity of ^177Lu-labelled compound in every component was detected by gamma counter.

SMILES	pIC50 [1]	Membrane (%) (LNCaP cells; 1 hr)	Membrane (%) (LNCaP cells; 4 hr)	Membrane (%) (LNCaP cells; 24 hr)	Intracellular (%) (LNCaP cells; 1 hr)	Intracellular (%) (LNCaP cells; 4 hr)	Intracellular (%) (LNCaP cells; 24 hr)
O=C(O)CCC[C@H](NC(=O)N[C@@H](CCNC(=O)[C@H](Cc1c2ccccc2cc2ccccc12)NC(=O)[C@H]1CC[C@H](CNC(=O)CN2CCN(CC(=O)O)CCN(CC(=O)O)CCN(CC(=O)O)CC2)CC1)C(=O)O)C(=O)O [HTK03149, reference compound]	8.80	2.9	3.8	5.7	2.8	7.4	19.3
O=C(O)CC[C@H](NC(=O)N[C@@H](CCCCNC(=O)[C@H](Cc1ccc2ccccc2c1)NC(=O)[C@H]1CC[C@H](CNC(=O)CN2CCN(CC(=O)O)CCN(CC(=O)O)CCN(CC(=O)O)CC2)CC1)C(=O)O)C(=O)O [PSMA-617, reference compound]	8.62	2.1	4.8	4.7	3.0	9.5	22.4
